Test results: CN111909135A, “一种azd9291氘代物甲磺酸盐新盐型及其制备方法” (Tianjin University, priority 2020, dated 2020)

Experiments:
[1] = Water solubility of the crystal form at 25℃ (Chinese Pharmacopoeia 2015, part IV); type: physicochemical
[2] = Crystal form stability, high temperature (60℃) and accelerated (40℃, RH75%) tests; type: physicochemical

C=CC(=O)Nc1cc(Nc2nccc(-c3cn(C)c4ccccc34)n2)c(OC)cc1N(C)CCN(C)C [AZD9291氘代物甲磺酸盐新盐型]
increase in solubility relative to AZD9291 deuterated compound mesylate (WO2018214886A1 and CN201810495698.7) [1]: 3 fold | crystal form transformation (XRD) ([2]; 40℃, RH75%, accelerated stability, 0, 5 and 10 days): 未发生 晶型转变 | appearance, colour and crystal form change ([2]; high temperature (60℃, humidity not limited) and accelerated (40℃, RH75%), 5 and 10 days): 外观色泽及晶 型均无变化
